Measurements published in patent US6680323B2, “Dihydropyrimidines and uses thereof” (Synaptic Pharmaceutical Corporation, priority 1998, dated 2004).
Where a name gives a salt, the structure may show the parent alone.

Tests used:
[1] = molecular target: T1, human α1d receptor (Homo sapiens, UniProt P25100); assay: Radioligand binding ([3H]prazosin) at cloned human α1d receptor; details: second column headed hα1a (c3); membranes of transfected LM(tk−) cells, [3H]prazosin 0.5 nM; read-out: Binding affinity hα1a
T1 construct: expressed in transfected cells
T1 sequence (P25100 1-572): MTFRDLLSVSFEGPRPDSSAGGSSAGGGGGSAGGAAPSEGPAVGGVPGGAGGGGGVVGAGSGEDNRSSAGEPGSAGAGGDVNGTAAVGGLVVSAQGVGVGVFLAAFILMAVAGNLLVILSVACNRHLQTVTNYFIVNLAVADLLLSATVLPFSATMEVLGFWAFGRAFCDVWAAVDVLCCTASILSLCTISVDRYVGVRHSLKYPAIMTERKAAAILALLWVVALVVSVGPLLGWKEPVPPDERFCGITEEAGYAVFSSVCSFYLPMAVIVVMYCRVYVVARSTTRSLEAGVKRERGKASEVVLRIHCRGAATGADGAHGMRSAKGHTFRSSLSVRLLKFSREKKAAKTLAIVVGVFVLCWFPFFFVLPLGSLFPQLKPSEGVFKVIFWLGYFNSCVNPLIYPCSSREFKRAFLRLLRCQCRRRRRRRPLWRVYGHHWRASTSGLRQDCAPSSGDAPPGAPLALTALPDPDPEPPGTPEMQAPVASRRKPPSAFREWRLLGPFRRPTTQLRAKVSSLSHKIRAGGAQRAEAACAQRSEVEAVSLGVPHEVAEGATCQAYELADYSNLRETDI
Description: The activity of compounds at the different human receptors was determined in vitro using cultured cell lines that selectively express the receptor of interest. These cell lines were prepared by transfecting the cloned cDNA or cloned genomic DNA or constructs containing both genomic DNA and cDNA encoding the human α-adrenergic receptors as follows:
α1d Human Adrenergic Receptor
The entire coding region of α1d (1719 bp), including 150 base pairs of 5′ untranslated sequence (5′ UT) and 300 bp of 3′ untranslated sequence (3′ UT), was cloned into the BamHI and ClaI sites of the polylinker-modified eukaryotic expression vector pCEXV-3, called EXJ.HR. The construct involved the ligation of partial overlapping human lymphocyte genomic and hippocampal cDNA clones: 5′ sequence were contained on a 1.2 kb SmaI-XhoI genomic fragment (the vector-derived BamHI site was used for subcloning instead of the internal ninsert-derived SmaI site) and 3′ sequences were contained on an 1.3 kb XhoI-ClaI cDNA fragment (the ClaI site was from the vector polylinker). Stable cell lines were obtained by cotransfection with the plasmid α1A/EXJ (expression vector containing the α1a receptor gene (old nomenclature)) and the plasmid pGCcos3neo (plasmid containing the aminoglycoside transferase gene) into LM(tk−) cells using calcium phosphate technique. The cells were grown, in a controlled environment (37° C., 5% CO2), as monolayers in Dulbecco's modified Eagle's Medium (GIBCO, Grand Island, N.Y.) containing 25 mM glucose and supplemented with 10% bovine calf serum, 100 units/ml penicillin g, and 100 μg/ml streptomycin sulfate. Stable clones were then selected for resistance to the antibiotic G-418 (1 mg/ml), and membranes were harvested and assayed for their ability to bind [^3H]prazosin as described below (see “Radioligand Binding assays”).
The cell line expressing the human α1d receptor used herein was designated L-α1A (old nomenclature) and was deposited with the American Type Culture Collection, 12301 Parklawn Drive, Rockville, Md. 20852, U.S.A. under the provisions of the Budapest Treaty for the International Recognition of the Deposit of Microorganisms for the Purposes of Patent Procedure. The cell line expressing the human α1d receptor, was accorded ATCC Accession No. CRL 11138, and was deposited on Sep. 25, 1992.
Radioligand Binding Assays for α1 Receptors
Transfected cells from culture flasks were scraped into 5 ml of 5 mM Tris-HCl, 5 mM EDTA, pH 7.5, and lysed by sonication. The cell lysates were centrifuged at 1000 rpm for 5 min at 4° C., and the supernatant was centrifuged at 30,000×g for 20 min at 4° C. The pellet was suspended in 50 mM Tris-HCl, 1 mM MgCl2, and 0.1% ascorbic acid at pH 7.5. Binding of the α1 antagonist [^3H]prazosin (0.5 nM, specific activity 76.2 Ci/mmol) to membrane preparations of LM(tk−) cells was done in a final volume of 0.25 ml and incubated at 37° C. for 20 min. Nonspecific binding was determined in the presence of 10 μM phentolamine. The reaction was stopped by filtration through GF/B filters using a cell harvester. Inhibition experiments, routinely consisting of 7 concentrations of the tested compounds, were analyzed using a non-linear regression curve-fitting computer program to obtain Ki values.

[2] = molecular target: T2, human α2a receptor (Homo sapiens, UniProt P08913); assay: Competition binding ([3H]rauwolscine) at cloned human α2a receptor; details: transfected LM(tk−) cells, [3H]rauwolscine 0.5 nM; read-out: Binding affinity hα2a
T2 construct: expressed in transfected cells
T2 sequence (P08913 1-465): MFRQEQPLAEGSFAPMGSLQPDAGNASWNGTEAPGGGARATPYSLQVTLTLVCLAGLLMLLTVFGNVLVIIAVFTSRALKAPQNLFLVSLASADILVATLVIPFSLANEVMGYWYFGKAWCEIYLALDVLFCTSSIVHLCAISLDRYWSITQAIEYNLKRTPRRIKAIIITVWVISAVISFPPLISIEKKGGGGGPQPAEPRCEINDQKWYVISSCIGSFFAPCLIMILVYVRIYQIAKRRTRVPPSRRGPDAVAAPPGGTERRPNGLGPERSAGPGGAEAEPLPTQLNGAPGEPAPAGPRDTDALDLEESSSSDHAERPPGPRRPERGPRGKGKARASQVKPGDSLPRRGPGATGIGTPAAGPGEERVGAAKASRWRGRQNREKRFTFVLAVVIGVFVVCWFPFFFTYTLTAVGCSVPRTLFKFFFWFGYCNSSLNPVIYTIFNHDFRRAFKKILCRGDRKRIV
From the text: α2 Human Adrenergic Receptors
To determine the potency of α1 antagonists at the α2 receptors, LM(tk−) cell lines stably transfected with the genes encoding the α2a, α2b, and α2c receptors were used. The cell line expressing the α2a receptor is designated L-α2A, and was deposited on Nov. 6, 1992 under ATCC Accession No. CRL 11180. The cell line expressing the α2b receptor is designated L-NGC-α2B, and was deposited on Oct. 25, 1989 under ATCC Accession No. CRL10275. The cell line expressing the α2c receptor is designated L-α2C, and was deposited on Nov. 6, 1992 under ATCC Accession No. CRL-11181. All the cell lines were deposited with the American Type Culture Collection, 12301 Parklawn Drive, Rockville, Md. 20852, U.S.A. under the provisions of the Budapest Treaty for the International Recognition of the Deposit of Microorganisms for the Purposes of Patent Procedure. Cell lysates were prepared as described above (see Radioligand Binding Assays), and suspended in 25 mM glycylglycine buffer (pH 7.6 at room temperature). Equilibrium competition binding assay were performed using [3H]rauwolscine (0.5 nM), and nonspecific binding was determined by incubation with 10 μM phentolamine. The bound radioligand was separated by filtration through GF/B filters using a cell harvester.

Row | SMILES | Ki [1] [µM] | Ki [2] [µM]
1 | COCC1=C(C(=O)OC)[C@H](c2ccc(F)c(F)c2)N(C(=O)NCCCO)C(=O)N1 [Compound 1, (+)-1,2,3,6-Tetrahydro-1-(3-hydroxypropyl)carboxamido-5-methoxycarbonyl-4-methoxymethyl-6-(3,4-difluorophenyl)-2-oxo-pyrimidine] | > 50 | 40
2 | COCC1=C(C(=O)OC)[C@H](c2ccc(F)c(F)c2)N(C(=O)NCCCN2CCC(c3cccc[n+]3[O-])CC2)C(=O)N1 [Compound 2, (+)-1,2,3,6-Tetrahydro-1-{N-[4-(2-pyridyl)piperidin-1-yl]propyl}carboxamido-5-methoxycarbonyl-4-methoxymethyl-6-(3,4-difluorophenyl)-2-oxopyrimidine-pyridine-N-oxide hydrochloride] | 3.7 | 4.2
3 | COCC1=C(C(=O)OC)[C@H](c2ccc(F)c(F)c2)N(C(=O)NCCC[n+]2ccc(-c3ccccn3)cc2)C(=O)N1 [Compound 3, 4-(2-Pyridyl)-1-{3-[5-carboxymethyl-4-methoxymethyl-2-oxo-6(S)-(3,4-difluorphenyl)-1,2,3,6-tetrahydropyrimidin-1-yl]carboxyaminopropyl}pyridinium chloride] | > 5 | 5.62

Results, then the compound that gave them:

Row | Ki [1] [µM] | Ki [2] [µM] | SMILES
4 | 1.97 | 1.5 | O=C1OCC2=C1C(c1ccc(F)c(F)c1)N(C(=O)NCCCN1CCC(c3ccccn3)CC1)C(=O)N2 (single isomer, unassigned; (+)) [Compound 8, (+)-1-3-{[4-(3,4-Difluorophenyl)-2,5-dioxo-1,2,5,7-tetrahydro-4H-furo[3,4-d]-pyrimidine-3-carbonyl]amino}-propyl-4-(2-pyridyl)-piperidine]
5 | 1.2 | 0.38 | COC(=O)C1=C(CO)NC(=O)N(C(=O)NCCCN2CCC(c3ccccn3)CC2)[C@H]1c1ccc(F)c(F)c1 [Compound 7, (+)-1,2,3,6-Tetrahydro-1-{N-[4-(2-pyridyl)piperidin-1-yl]propyl}carboxamido-5-methoxycarbonyl-4-hydroxymethyl-6-(3,4-difluorophenyl)-2-oxopyrimidine]
6 | > 5 | > 50 | O=C(O)CCNC(=O)N1C(=O)NC2=C(C(=O)OC2)[C@@H]1c1ccc(F)c(F)c1 [Compound 9]
